Measured values taken from patent publication US20260201008A1, “SECRETIN-DERIVED GLP1R SELECTIVE AGONISTS” (GUBRA A/S, priority 2023, published 2026).
Like-named read-outs stand apart in the source and are kept apart here. Numbered stars: 1 amine (or outer) side, 2 acyl side, 3 side chain; on linkers, the order of the positions; unused ones are H or OH. Square brackets hold non-standard residues; d marks the D form. Side chains are listed from the residue outwards. Peptide text beside a SMILES is read from it. * marks the point of attachment. C20 diacid = O=C(O)CCCCCCCCCCCCCCCCCCC(=O)*; γGlu = O=C(O)[C@H](CCC(=O)[*:2])N[*:1]; AEEA = NCCOCCOCC(=O)O; Aib = CC(C)(N)C(=O)O

Legend:
[1] = Turbidity of crude library peptides (absorbance at 600 nm); assay type: physicochemical; conditions: Physical stability of peptides
How it was run: (§1)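 Crude peptides at 267 μM in 50 mM sodium acetate pH 4.0 or 50 mM sodium phosphate pH 7.0, pre-incubated 1-2 h at room temperature, then 4 μM final ThT added. Turbidity read first as A600. ThT fluorescence (ex 450/em 480 nm) read every 10 min for 72 h at 40° C, with 5 min shaking before each read; fibril formation = average emission.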

[2] = Fibril formation of crude library peptides (Thioflavin T); assay type: physicochemical; parameters: key: average ThT fluorescence emission at 480 nm (ex 450 nm), raw units; conditions: Physical stability of peptides
How it was run: as §1

GLP1R = GLP1R (Homo sapiens, UniProt P43220); experiment: hGLP1R potency, cAMP accumulation in CHO-K1 cells stably overexpressing hGLP1R; assay type: cell-based; parameters: host or cells: CHO-K1; conditions: for EC50: cAMP accumulation, CHO-K1 cells overexpressing hGLP1R; for SCTR EC50/GLP1R EC50 ratio: selectivity for hGLP1R over hSCTR, cAMP accumulation in CHO-K1 cells; for Selectivity: SCTR EC50/GLP1R EC50 ratio
How it was run: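 Thawed cells go straight into buffer containing 0.5 mM IBMX and 0.05% casein, get graded compound doses for 30 min at room temperature, and are then assayed for accumulated cAMP by time-resolved FRET. Human GLP-1(7-36) serves as positive control; EC50 is derived by nonlinear regression.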

SCTR = SCTR (Homo sapiens, UniProt P47872); experiment: hSCTR potency, cAMP accumulation in CHO-K1 cells stably overexpressing hSCTR; assay type: cell-based; parameters: alternatively Euroscreen ES-712-AF; FAST-0161L; host or cells: CHO-K1; conditions: cAMP accumulation, CHO-K1 cells overexpressing hSCTR
How it was run: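 Read-out is TR-FRET cAMP detection, recorded one hour after reagent addition, in CHO-K1 cells stably overexpressing hSCTR. Cells in DPBS containing 0.05% casein and 0.5 mM IBMX are exposed to graded peptide doses for 30 min at room temperature, with human secretin as reference agonist.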

[3] = read-out: hGLP1R pEC50 (converted)
[4] = read-out: hSCTR pEC50 (converted)
[5] = read-out: pEC50 hGLPR1 (converted)
[6] = read-out: pEC50 hSCTR (converted)

Chain of GLP1R (P43220 24-463): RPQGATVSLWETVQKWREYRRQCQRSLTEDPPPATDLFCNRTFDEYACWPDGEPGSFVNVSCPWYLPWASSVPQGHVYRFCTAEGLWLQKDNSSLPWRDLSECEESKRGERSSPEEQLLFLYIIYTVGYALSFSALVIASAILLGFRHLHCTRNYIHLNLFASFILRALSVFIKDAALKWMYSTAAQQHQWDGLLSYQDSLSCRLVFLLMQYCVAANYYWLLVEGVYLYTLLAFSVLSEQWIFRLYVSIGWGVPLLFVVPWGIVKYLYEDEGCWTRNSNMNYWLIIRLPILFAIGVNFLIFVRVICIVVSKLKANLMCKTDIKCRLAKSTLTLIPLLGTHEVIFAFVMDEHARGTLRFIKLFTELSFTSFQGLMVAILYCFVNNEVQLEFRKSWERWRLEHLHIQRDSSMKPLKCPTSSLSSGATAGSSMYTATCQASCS
Chain of SCTR (P47872 23-440): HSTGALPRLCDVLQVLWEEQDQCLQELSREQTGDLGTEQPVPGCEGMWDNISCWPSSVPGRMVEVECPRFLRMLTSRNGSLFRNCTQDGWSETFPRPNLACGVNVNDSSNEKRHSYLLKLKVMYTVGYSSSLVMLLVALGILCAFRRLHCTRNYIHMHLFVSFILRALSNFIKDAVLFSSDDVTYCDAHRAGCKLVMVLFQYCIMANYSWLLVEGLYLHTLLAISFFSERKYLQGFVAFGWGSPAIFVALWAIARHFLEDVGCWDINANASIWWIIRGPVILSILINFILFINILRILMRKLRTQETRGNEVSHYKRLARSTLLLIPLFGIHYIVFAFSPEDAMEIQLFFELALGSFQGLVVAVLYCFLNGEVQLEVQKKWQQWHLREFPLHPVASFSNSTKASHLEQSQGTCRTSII

| SMILES | Turbidity (pH 7) [1] | Fibril formation [2] | EC50 (GLP1R; [3]) [nM] | SCTR EC50/GLP1R EC50 ratio (GLP1R) | EC50 (SCTR; [4]) [nM] | Selectivity (GLP1R) | EC50 (GLP1R; [5]) [nM] | EC50 (SCTR; [6]) [nM] |
| --- | --- | --- | --- | --- | --- | --- | --- | --- |
| CC(C)C[C@H](NC(=O)[C@H](Cc1ccccc1)NC(=O)[C@H](CCCNC(=N)N)NC(=O)[C@H](CCC(N)=O)NC(=O)[C@H](CO)NC(=O)[C@H](C)NC(=O)[C@H](C)NC(=O)[C@H](Cc1ccccc1)NC(=O)[C@H](CCC(=O)O)NC(=O)[C@H](CCCCNC(=O)COCCOCCNC(=O)COCCOCCNC(=O)CC[C@H](NC(=O)CCCCCCCCCCCCCCCCCCC(=O)O)C(=O)O)NC(=O)[C@H](CC(C)C)NC(=O)[C@@H](NC(=O)[C@H](CO)NC(=O)[C@@H](NC(=O)[C@H](CC(=O)O)NC(=O)[C@H](CO)NC(=O)[C@@H](NC(=O)[C@H](Cc1ccccc1)NC(=O)[C@@H](NC(=O)CNC(=O)[C@H](CCC(=O)O)NC(=O)C(C)(C)NC(=O)[C@@H](N)Cc1c[nH]cn1)[C@@H](C)O)[C@@H](C)O)C(C)C)C(C)C)C(=O)N[C@@H](CCC(=O)O)C(=O)N[C@@H](Cc1c[nH]cn1)C(=O)N[C@@H](CC(C)C)C(=O)N[C@H](C(N)=O)C(C)C [compound 92] (H-H[Aib]EGTFTSDVSVLK([AEEA-AEEA-γGlu-C20 diacid])EFAASQRFLEHLV-NH2) | 0.14 | 260000 | 0.0794 | 20773 | 1580 |  |  |  |
| CC(C)C[C@H](NC(=O)[C@H](Cc1ccccc1)NC(=O)[C@H](CCCNC(=N)N)NC(=O)[C@H](CCC(N)=O)NC(=O)[C@@H](NC(=O)[C@H](C)NC(=O)[C@H](C)NC(=O)[C@H](CCC(=O)O)NC(=O)[C@H](CCC(=O)O)NC(=O)[C@H](CCCCNC(=O)COCCOCCNC(=O)COCCOCCNC(=O)CC[C@H](NC(=O)CCCCCCCCCCCCCCCCCCC(=O)O)C(=O)O)NC(=O)[C@H](CC(C)C)NC(=O)[C@@H](NC(=O)[C@H](CO)NC(=O)[C@@H](NC(=O)[C@H](CC(=O)O)NC(=O)[C@H](CO)NC(=O)[C@@H](NC(=O)[C@H](Cc1ccccc1)NC(=O)[C@@H](NC(=O)CNC(=O)[C@H](CCC(=O)O)NC(=O)C(C)(C)NC(=O)[C@@H](N)Cc1c[nH]cn1)[C@@H](C)O)[C@@H](C)O)C(C)C)[C@@H](C)O)[C@@H](C)O)C(=O)N[C@@H](CCC(=O)O)C(=O)N[C@@H](Cc1c[nH]cn1)C(=O)N[C@@H](CC(C)C)C(=O)N[C@H](C(N)=O)C(C)C [compound 102] (H-H[Aib]EGTFTSDVSTLK([AEEA-AEEA-γGlu-C20 diacid])EEAATQRFLEHLV-NH2) | 0.08 | 6284 | 0.01 | 8851 | 79.4 |  |  |  |
| CC(C)C[C@H](NC(=O)[C@H](Cc1ccccc1)NC(=O)[C@H](CCCNC(=N)N)NC(=O)[C@H](CCC(N)=O)NC(=O)[C@H](CCC(=O)O)NC(=O)[C@H](C)NC(=O)[C@H](C)NC(=O)C(C)(C)NC(=O)[C@H](CCC(=O)O)NC(=O)[C@H](CCCCNC(=O)COCCOCCNC(=O)COCCOCCNC(=O)CC[C@H](NC(=O)CCCCCCCCCCCCCCCCCCC(=O)O)C(=O)O)NC(=O)[C@H](CC(C)C)NC(=O)[C@@H](NC(=O)[C@H](CO)NC(=O)[C@@H](NC(=O)[C@H](CC(=O)O)NC(=O)[C@H](CO)NC(=O)[C@@H](NC(=O)[C@H](Cc1ccccc1)NC(=O)[C@@H](NC(=O)CNC(=O)[C@H](CCC(=O)O)NC(=O)C(C)(C)NC(=O)[C@@H](N)Cc1c[nH]cn1)[C@@H](C)O)[C@@H](C)O)C(C)C)[C@@H](C)O)C(=O)N[C@@H](CCC(=O)O)C(=O)N[C@@H](Cc1c[nH]cn1)C(=O)N[C@@H](CC(C)C)C(=O)N[C@H](C(N)=O)C(C)C [compound 16] (H-H[Aib]EGTFTSDVSTLK([AEEA-AEEA-γGlu-C20 diacid])E[Aib]AAEQRFLEHLV-NH2) | 0.08 | 11719 |  |  |  | 2876 | 0.0398 | 126 |
| CC(C)C[C@H](NC(=O)[C@H](Cc1ccccc1)NC(=O)[C@H](CCCNC(=N)N)NC(=O)[C@H](CCC(N)=O)NC(=O)[C@@H](NC(=O)[C@H](C)NC(=O)[C@H](C)NC(=O)C(C)(C)NC(=O)[C@H](CCC(=O)O)NC(=O)[C@H](CCCCNC(=O)COCCOCCNC(=O)COCCOCCNC(=O)CC[C@H](NC(=O)CCCCCCCCCCCCCCCCCCC(=O)O)C(=O)O)NC(=O)[C@H](CC(C)C)NC(=O)[C@H](CCC(=O)O)NC(=O)[C@H](CO)NC(=O)[C@@H](NC(=O)[C@H](CC(=O)O)NC(=O)[C@H](CO)NC(=O)[C@@H](NC(=O)[C@H](Cc1ccccc1)NC(=O)[C@@H](NC(=O)CNC(=O)[C@H](CCC(=O)O)NC(=O)C(C)(C)NC(=O)[C@@H](N)Cc1c[nH]cn1)[C@@H](C)O)[C@@H](C)O)C(C)C)[C@@H](C)O)C(=O)N[C@@H](CCC(=O)O)C(=O)N[C@@H](Cc1c[nH]cn1)C(=O)N[C@@H](CC(C)C)C(=O)N[C@H](C(N)=O)C(C)C [compound 82] (H-H[Aib]EGTFTSDVSELK([AEEA-AEEA-γGlu-C20 diacid])E[Aib]AATQRFLEHLV-NH2) | 0.08 | 8549 |  |  |  | 11264 | 0.01 | 100 |
| CC(C)C[C@H](NC(=O)[C@H](CCC(=O)O)NC(=O)[C@H](CCCCNC(=O)COCCOCCNC(=O)COCCOCCNC(=O)CC[C@H](NC(=O)CCCCCCCCCCCCCCCCCCC(=O)O)C(=O)O)NC(=O)[C@H](CC(C)C)NC(=O)[C@H](CCCNC(=N)N)NC(=O)[C@H](CO)NC(=O)[C@@H](NC(=O)[C@H](CC(=O)O)NC(=O)[C@H](CO)NC(=O)[C@@H](NC(=O)[C@H](Cc1ccccc1)NC(=O)[C@@H](NC(=O)CNC(=O)[C@H](CCC(=O)O)NC(=O)C(C)(C)NC(=O)[C@@H](N)Cc1c[nH]cn1)[C@@H](C)O)[C@@H](C)O)C(C)C)C(=O)N[C@@H](C)C(=O)N[C@@H](C)C(=O)N[C@@H](CCC(N)=O)C(=O)N[C@@H](CCC(N)=O)C(=O)N[C@@H](CCCNC(=N)N)C(=O)N[C@@H](Cc1ccccc1)C(=O)N[C@@H](CC(C)C)C(=O)N[C@@H](CCC(=O)O)C(=O)N[C@@H](Cc1c[nH]cn1)C(=O)N[C@@H](CC(C)C)C(=O)N[C@H](C(N)=O)C(C)C [compound 3] (H-H[Aib]EGTFTSDVSRLK([AEEA-AEEA-γGlu-C20 diacid])ELAAQQRFLEHLV-NH2) | 0.08 | 13795 |  |  |  | 4851 | 0.0158 | 79.4 |
| CC(C)C[C@H](NC(=O)[C@H](Cc1ccccc1)NC(=O)[C@H](CCCNC(=N)N)NC(=O)[C@H](CCC(N)=O)NC(=O)[C@H](CO)NC(=O)[C@H](C)NC(=O)[C@H](C)NC(=O)[C@@H](NC(=O)[C@H](CCC(=O)O)NC(=O)[C@H](CCCCNC(=O)COCCOCCNC(=O)COCCOCCNC(=O)CC[C@H](NC(=O)CCCCCCCCCCCCCCCCCCC(=O)O)C(=O)O)NC(=O)[C@H](CC(C)C)NC(=O)[C@@H](NC(=O)[C@H](CO)NC(=O)[C@@H](NC(=O)[C@H](CC(=O)O)NC(=O)[C@H](CO)NC(=O)[C@@H](NC(=O)[C@H](Cc1ccccc1)NC(=O)[C@@H](NC(=O)CNC(=O)[C@H](CCC(=O)O)NC(=O)C(C)(C)NC(=O)[C@@H](N)Cc1c[nH]cn1)[C@@H](C)O)[C@@H](C)O)C(C)C)[C@@H](C)O)[C@@H](C)O)C(=O)N[C@@H](CCC(=O)O)C(=O)N[C@@H](Cc1c[nH]cn1)C(=O)N[C@@H](CC(C)C)C(=O)N[C@H](C(N)=O)C(C)C [compound 20] (H-H[Aib]EGTFTSDVSTLK([AEEA-AEEA-γGlu-C20 diacid])ETAASQRFLEHLV-NH2) | 0.10 | 33108 |  |  |  | 22019 | 0.02 | 398 |
| CC(C)C[C@H](NC(=O)[C@H](Cc1ccccc1)NC(=O)[C@H](CCCNC(=N)N)NC(=O)[C@H](CCC(N)=O)NC(=O)[C@@H](NC(=O)[C@H](C)NC(=O)[C@H](C)NC(=O)C(C)(C)NC(=O)[C@H](CCC(=O)O)NC(=O)[C@H](CCCCNC(=O)COCCOCCNC(=O)COCCOCCNC(=O)CC[C@H](NC(=O)CCCCCCCCCCCCCCCCCCC(=O)O)C(=O)O)NC(=O)[C@H](CC(C)C)NC(=O)[C@H](CCCNC(=N)N)NC(=O)[C@H](CO)NC(=O)[C@@H](NC(=O)[C@H](CC(=O)O)NC(=O)[C@H](CO)NC(=O)[C@@H](NC(=O)[C@H](Cc1ccccc1)NC(=O)[C@@H](NC(=O)CNC(=O)[C@H](CCC(=O)O)NC(=O)C(C)(C)NC(=O)[C@@H](N)Cc1c[nH]cn1)[C@@H](C)O)[C@@H](C)O)C(C)C)[C@@H](C)O)C(=O)N[C@@H](CCC(=O)O)C(=O)N[C@@H](Cc1c[nH]cn1)C(=O)N[C@@H](CC(C)C)C(=O)N[C@H](C(N)=O)C(C)C [compound 50] (H-H[Aib]EGTFTSDVSRLK([AEEA-AEEA-γGlu-C20 diacid])E[Aib]AATQRFLEHLV-NH2) | 0.09 | 12284 |  |  |  | 3425 | 0.0158 | 50.1 |
